The values below come from ChEMBL document CHEMBL2073750, “Differential interaction of 3-hydroxy-3-methylglutaryl-coa reductase inhibitors with ABCB1, ABCC2, and OATP1B1” (Drug Metab Dispos, 2005).

Common to all, as to type: functional, cell-based
For data set [1], the target named is ATP-binding cassette sub-family C member 2 (Homo sapiens, UniProt Q92887). The data set can be described thus: TP_TRANSPORTER: inhibition of calcein-AM efflux in MRP2-expressing MDCK cells.
In data set [2] the target is T1, Solute carrier organic anion transporter family member 1B1 (Homo sapiens, UniProt Q9Y6L6).
T1 sequence (Q9Y6L6 whole entry): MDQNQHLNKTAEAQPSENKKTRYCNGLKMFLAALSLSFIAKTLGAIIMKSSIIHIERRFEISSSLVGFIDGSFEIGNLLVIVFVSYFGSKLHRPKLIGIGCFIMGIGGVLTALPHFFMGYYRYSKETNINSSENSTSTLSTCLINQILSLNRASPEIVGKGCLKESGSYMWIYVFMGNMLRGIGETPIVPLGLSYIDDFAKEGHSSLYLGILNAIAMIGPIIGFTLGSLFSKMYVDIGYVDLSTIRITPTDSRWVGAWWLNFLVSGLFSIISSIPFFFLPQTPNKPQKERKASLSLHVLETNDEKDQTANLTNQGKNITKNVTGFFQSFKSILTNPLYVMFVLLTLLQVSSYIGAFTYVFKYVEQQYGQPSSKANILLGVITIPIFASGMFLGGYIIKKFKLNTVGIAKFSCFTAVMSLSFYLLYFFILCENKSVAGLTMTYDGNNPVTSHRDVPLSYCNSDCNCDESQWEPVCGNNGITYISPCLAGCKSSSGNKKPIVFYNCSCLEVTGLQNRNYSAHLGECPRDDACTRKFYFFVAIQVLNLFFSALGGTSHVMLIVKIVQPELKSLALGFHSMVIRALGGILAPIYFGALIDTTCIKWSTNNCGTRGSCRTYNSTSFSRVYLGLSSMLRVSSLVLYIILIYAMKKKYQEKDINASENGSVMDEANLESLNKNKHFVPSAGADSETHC
The data set can be described thus: TP_TRANSPORTER: inhibition of estradiol-17beta-glucuronide uptake(estradiol-17beta-glucuronide:0.02uM) in OATP1B1-expressing HEK293 cells.

Data set [3] concerns the target ATP-dependent translocase ABCB1 (Homo sapiens, UniProt P08183). The data set can be described thus: TP_TRANSPORTER: inhibition of calcein-AM efflux in MDR1-expressing MDCK cells.

Sequence of ATP-binding cassette sub-family C member 2 (Q92887 whole entry): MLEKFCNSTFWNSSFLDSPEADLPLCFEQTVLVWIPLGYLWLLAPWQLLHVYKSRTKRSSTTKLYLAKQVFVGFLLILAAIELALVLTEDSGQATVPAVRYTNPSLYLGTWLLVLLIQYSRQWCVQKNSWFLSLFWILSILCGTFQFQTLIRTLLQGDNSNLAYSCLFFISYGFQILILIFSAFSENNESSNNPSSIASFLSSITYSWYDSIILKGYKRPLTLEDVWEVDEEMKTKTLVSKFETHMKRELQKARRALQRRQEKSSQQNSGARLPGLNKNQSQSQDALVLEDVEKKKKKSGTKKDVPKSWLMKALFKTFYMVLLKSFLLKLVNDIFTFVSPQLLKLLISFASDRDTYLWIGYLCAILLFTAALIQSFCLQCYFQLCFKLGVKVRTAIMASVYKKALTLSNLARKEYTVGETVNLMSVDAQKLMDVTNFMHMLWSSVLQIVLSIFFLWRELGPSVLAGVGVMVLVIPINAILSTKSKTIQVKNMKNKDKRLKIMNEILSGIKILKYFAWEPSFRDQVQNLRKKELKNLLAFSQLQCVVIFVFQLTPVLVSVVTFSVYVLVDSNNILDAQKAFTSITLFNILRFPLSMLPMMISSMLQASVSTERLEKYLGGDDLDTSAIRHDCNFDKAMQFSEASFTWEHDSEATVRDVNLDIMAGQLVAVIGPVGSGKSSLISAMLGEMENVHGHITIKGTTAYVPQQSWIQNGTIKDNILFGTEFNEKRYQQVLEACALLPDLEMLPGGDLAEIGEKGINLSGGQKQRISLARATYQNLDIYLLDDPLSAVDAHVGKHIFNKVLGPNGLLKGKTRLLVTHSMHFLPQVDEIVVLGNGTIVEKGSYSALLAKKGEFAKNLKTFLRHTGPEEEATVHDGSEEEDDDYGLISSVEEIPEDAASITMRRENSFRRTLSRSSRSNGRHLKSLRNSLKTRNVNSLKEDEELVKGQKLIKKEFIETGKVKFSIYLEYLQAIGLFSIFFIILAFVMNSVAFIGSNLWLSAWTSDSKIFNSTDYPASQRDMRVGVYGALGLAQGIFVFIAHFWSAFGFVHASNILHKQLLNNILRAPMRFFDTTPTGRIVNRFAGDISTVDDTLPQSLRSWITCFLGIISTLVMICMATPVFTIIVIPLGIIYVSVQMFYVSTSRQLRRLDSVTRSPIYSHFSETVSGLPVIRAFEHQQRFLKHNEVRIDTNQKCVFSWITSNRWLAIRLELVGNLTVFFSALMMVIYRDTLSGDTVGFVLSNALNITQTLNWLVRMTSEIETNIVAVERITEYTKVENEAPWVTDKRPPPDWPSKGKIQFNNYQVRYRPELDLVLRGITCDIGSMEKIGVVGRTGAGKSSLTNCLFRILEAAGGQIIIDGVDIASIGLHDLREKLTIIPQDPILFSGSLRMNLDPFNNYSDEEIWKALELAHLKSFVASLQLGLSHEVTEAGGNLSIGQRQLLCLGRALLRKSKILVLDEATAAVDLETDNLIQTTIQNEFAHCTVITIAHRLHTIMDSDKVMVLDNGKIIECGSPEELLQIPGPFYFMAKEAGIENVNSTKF
Sequence of ATP-dependent translocase ABCB1 (P08183 whole entry): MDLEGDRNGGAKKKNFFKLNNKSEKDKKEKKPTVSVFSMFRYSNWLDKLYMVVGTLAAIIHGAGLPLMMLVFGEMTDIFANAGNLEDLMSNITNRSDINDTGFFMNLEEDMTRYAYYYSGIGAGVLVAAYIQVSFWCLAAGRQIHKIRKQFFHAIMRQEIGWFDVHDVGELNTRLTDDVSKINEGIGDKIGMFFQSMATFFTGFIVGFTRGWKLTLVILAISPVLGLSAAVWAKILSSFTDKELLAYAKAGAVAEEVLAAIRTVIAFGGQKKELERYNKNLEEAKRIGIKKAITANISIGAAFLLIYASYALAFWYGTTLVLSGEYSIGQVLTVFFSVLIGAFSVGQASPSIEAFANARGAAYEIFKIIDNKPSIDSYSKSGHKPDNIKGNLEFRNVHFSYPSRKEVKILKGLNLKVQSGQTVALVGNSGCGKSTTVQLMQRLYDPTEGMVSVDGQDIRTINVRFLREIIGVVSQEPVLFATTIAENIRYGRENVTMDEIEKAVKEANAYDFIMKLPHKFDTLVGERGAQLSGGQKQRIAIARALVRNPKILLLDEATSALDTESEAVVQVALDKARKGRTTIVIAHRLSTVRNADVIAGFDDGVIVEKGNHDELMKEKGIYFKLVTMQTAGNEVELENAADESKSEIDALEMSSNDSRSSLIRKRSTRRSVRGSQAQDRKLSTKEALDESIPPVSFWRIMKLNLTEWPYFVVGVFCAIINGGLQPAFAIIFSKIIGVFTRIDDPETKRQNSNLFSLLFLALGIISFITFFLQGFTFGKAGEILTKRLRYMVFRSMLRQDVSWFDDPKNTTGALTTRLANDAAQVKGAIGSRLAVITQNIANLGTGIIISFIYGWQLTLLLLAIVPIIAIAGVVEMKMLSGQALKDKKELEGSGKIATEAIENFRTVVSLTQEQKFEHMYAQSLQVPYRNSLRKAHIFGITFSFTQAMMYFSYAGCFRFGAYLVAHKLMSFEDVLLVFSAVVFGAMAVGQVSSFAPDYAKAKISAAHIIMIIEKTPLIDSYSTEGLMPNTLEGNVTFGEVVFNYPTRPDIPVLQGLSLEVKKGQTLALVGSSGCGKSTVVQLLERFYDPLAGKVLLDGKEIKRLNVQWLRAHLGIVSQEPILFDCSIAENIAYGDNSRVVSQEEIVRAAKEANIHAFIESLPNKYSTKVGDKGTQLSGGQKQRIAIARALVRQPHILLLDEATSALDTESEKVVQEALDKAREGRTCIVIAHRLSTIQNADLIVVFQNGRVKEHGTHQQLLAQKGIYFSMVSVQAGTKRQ

For orientation: IC50 means the concentration that inhibits the measured activity by half. Take `CCC(C)(C)C(=O)O[C@H]1C[C@@H](C)C=C2C=C[C@H](C)[C@H](CC[C@@H](O)C[C@@H](O)CC(=O)O)[C@H]21` [TENIVASTATIN]: the IC50 result is “is not an inhibitor [IC50=-(>100uM)]” in data set [1] (mdck), 3.6 µM in data set [2] (read-out: IC50) and “is not an inhibitor [IC50=-(>100uM)]” in data set [3] (mdck).

As for `CC(C)c1c(C(=O)Nc2ccccc2)c(-c2ccccc2)c(-c2ccc(F)cc2)n1CC[C@@H]1C[C@@H](O)CC(=O)O1` [ATORVASTATIN LACTONE], the results for the IC50 in data set [1] (read-out: IC50), in data set [2] (read-out: IC50) and in data set [3] (read-out: IC50) were 15 µM, 2.6 µM and 14 µM, respectively.

With `CC[C@H](C)C(=O)O[C@H]1C[C@@H](C)C=C2C=C[C@H](C)[C@H](CC[C@@H]3C[C@@H](O)CC(=O)O3)[C@H]21` [LOVASTATIN], the IC50 entry was “is not an inhibitor [IC50=-(>33uM)]” in data set [1] (mdck) and 28 µM in data set [2] (read-out: IC50).

In the case of `CC(C)c1c(C(=O)Nc2ccccc2)c(-c2ccccc2)c(-c2ccc(F)cc2)n1CC[C@@H](O)C[C@@H](O)CC(=O)O` [ATORVASTATIN], the IC50 entry in data set [1] (mdck) and in data set [3] (mdck) was “is not an inhibitor [IC50=-(>100uM)]” each time.

For the compound `CC[C@H](C)C(=O)O[C@H]1C[C@H](O)C=C2C=C[C@H](C)[C@H](CC[C@@H](O)C[C@@H](O)CC(=O)O)[C@H]21` [PRAVASTATIN], the IC50 result in data set [1] (mdck), in data set [2] (hek293) and in data set [3] (mdck) was “is not an inhibitor [IC50=-(>100uM)]” each time.

Take `CC[C@]1(O)C[C@@H]2CN(CCc3c([nH]c4ccccc34)[C@@](C(=O)OC)(c3cc4c(cc3OC)N(C)[C@H]3[C@@](O)(C(=O)OC)[C@H](OC(C)=O)[C@]5(CC)C=CCN6CC[C@]43[C@@H]65)C2)C1` [VINBLASTINE]: the IC50 in data set [1] (read-out: IC50) is 21 µM.

With `CO[C@H]1/C=C/O[C@@]2(C)Oc3c(C)c(O)c4c(O)c(cc(O)c4c3C2=O)NC(=O)/C(C)=C\C=C\[C@H](C)[C@H](O)[C@@H](C)[C@@H](O)[C@@H](C)[C@H](OC(C)=O)[C@@H]1C` [RIFAMYCIN], in data set [2] (read-out: IC50), the IC50 was found to be 0.23 µM.

As for `CC[C@H](C)C(=O)O[C@H]1C[C@@H](C)C=C2C=C[C@H](C)[C@H](CC[C@@H](O)C[C@@H](O)CC(=O)O)[C@H]21` [LOVASTATIN ACID], the IC50 entry in data set [1] (mdck) is “is not an inhibitor [IC50=-(>100uM)]”; in data set [2] (read-out: IC50), 4 µM; in data set [3] (mdck), “is not an inhibitor [IC50=-(>100uM)]”.
